Reference: patent US20110009403A1, “2-MORPHOLINYLPURINES AS INHIBITORS OF PI3K” (S*BIO Pte Ltd., priority 2007, published 2011)

Experiments:
PI3K p110α/p85 = target: T1, PI3K p110α/p85 (Homo sapiens, UniProt P42336); assay: PI3K assay ([γ33P]ATP, PtdIns/PtdSer coated plates); format: biochemical; conditions: 2 μM ATP, 1 hour at RT; read-out: IC50 (PI3Kα)
T1 construct: made in house
Experimental: Recombinant PI3K p110α/p85 was prepared in-house. Phosphatidylinositol (PtdIns), phosphotidylserine (PtdSer) and all other unspecified chemicals were purchased from Sigma-Aldrich. [γ^33P]ATP and Optiphase scintillant were obtained from Perkin Elmer.
Assays were performed in a final assay volume of 25 μL in 384-well Maxisorp plates (Nunc). Compounds were tested at 8 concentrations in 3-fold serial dilution, generally starting from 10 μM. Maxisorp plates were coated with 20 μL/well of a 1:1 mixture of PtdIns and PtdSer [0.1 mg/mL each dissolved in chloroform:ethanol (3:7)] and left overnight in a fume hood at room temperature (RT) to dry.
The enzyme reaction was created by pipetting 5 μL/well of compound (in 2.5% DMSO), 10 μL/well of enzyme (0.5 μg/mL p110α+1 μg/mL p85), and 10 μL/well of 5 μM ATP with 5 μCi/mL [γ^33P]ATP in assay buffer (final concentrations: 0.2 μg/mL p110α, 2 μM ATP, […] [γ^33P]ATP in 1× assay buffer: 100 mM Tris-HCl pH 7.0, 200 mM NaCl, 8 mM MgCl2). The reaction was incubated for 1 hour at RT and terminated with 30 μL/well of 50 mM EDTA solution. The plate was then washed twice with TBS, dried, and added with 30 μL/well of scintillant before it was counted in a MicroBeta Trilux.

mTOR = mTOR (Homo sapiens, UniProt P42345); assay: mTOR assay (phosphorylation of 4eBP1, [γ33P]-ATP filter plate); format: biochemical; conditions: 10 μM ATP, 1 hour at room temperature
Chain of mTOR (P42345 1382-2549 limits assumed): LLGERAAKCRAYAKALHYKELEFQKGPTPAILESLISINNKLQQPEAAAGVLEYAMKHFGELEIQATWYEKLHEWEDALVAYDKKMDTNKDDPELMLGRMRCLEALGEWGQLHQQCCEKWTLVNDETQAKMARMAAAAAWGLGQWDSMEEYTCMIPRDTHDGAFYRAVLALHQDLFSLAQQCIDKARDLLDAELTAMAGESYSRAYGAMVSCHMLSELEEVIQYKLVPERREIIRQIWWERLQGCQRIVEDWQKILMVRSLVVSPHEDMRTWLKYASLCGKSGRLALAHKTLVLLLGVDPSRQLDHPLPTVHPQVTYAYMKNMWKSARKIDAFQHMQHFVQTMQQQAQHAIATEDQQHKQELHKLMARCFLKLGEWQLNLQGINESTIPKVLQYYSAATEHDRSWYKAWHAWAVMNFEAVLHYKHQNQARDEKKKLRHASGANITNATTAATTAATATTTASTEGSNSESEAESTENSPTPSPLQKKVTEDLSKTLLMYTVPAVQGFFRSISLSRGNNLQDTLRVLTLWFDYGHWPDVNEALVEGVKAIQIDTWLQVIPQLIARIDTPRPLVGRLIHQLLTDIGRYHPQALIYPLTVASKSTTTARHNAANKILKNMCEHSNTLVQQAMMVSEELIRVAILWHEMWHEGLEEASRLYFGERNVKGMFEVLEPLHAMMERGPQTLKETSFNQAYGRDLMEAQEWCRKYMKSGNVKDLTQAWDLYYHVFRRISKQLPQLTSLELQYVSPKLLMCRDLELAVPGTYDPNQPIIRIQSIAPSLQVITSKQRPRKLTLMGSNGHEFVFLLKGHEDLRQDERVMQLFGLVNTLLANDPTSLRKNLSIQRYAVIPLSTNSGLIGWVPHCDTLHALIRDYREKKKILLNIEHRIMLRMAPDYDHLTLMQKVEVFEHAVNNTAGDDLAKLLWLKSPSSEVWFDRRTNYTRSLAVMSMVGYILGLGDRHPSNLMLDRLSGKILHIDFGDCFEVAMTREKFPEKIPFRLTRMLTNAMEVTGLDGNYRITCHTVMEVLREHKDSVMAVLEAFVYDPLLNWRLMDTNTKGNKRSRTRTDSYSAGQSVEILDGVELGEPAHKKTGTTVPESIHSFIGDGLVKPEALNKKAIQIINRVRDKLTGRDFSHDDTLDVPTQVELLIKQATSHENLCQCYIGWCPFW
Experimental: Truncated mTOR kinase and His-tagged 4eBP1 were produced in-house. [γ^33P]-ATP was purchased from Amersham (GE Healthcare). All chemicals, unless otherwise stated, were from Sigma-Aldrich.
Phosphorylation assays were initially performed in a final volume of 20 μL in 384-well polypropylene plate (Greiner). Compounds were typically tested over the range from 100 μM to 0.006 μM, in 8 step dilutions, in duplicate. 10 μL/well of 2× Enzyme-Substrate solution (1.5 μg/mL mTOR, 40 μg/mL 4eBP1 in 1× assay buffer: 10 mM Hepes pH 7.5, 50 mM NaCl and 10 mM MnCl2) were first added to the sample plate containing 1 μL/well of test compound in neat DMSO. The reaction was initiated by adding 10 μL/well of 20 μM ATP solution (final assay concentration 10 μM ATP and 0.4 μCi/well of [γ^33P]-ATP). After 1 hour incubation at room temperature, the reaction was terminated with 40 μL/well of 20 mM EDTA/1 mM ATP solution.
50 μL/well of the stopped reaction mix was then transferred to 384-well MultiScreenHTS-PH filter plate (Millipore) pre-added with 50 μL/well of 1% phosphoric acid. The plate was washed 4 times with 120 μL/well of 0.5% phosphoric acid via vacuum filtration. Finally, 10 μL/well of Optiphase™ SuperMix liquid scintillation cocktail (Perkin Elmer) was added. After minimum 1 hour of incubation, counting was performed in a Wallac MicroBeta TriLux scintillation counter using coincidence counting mode with crosstalk correction.

T1 sequence (P42336 whole entry): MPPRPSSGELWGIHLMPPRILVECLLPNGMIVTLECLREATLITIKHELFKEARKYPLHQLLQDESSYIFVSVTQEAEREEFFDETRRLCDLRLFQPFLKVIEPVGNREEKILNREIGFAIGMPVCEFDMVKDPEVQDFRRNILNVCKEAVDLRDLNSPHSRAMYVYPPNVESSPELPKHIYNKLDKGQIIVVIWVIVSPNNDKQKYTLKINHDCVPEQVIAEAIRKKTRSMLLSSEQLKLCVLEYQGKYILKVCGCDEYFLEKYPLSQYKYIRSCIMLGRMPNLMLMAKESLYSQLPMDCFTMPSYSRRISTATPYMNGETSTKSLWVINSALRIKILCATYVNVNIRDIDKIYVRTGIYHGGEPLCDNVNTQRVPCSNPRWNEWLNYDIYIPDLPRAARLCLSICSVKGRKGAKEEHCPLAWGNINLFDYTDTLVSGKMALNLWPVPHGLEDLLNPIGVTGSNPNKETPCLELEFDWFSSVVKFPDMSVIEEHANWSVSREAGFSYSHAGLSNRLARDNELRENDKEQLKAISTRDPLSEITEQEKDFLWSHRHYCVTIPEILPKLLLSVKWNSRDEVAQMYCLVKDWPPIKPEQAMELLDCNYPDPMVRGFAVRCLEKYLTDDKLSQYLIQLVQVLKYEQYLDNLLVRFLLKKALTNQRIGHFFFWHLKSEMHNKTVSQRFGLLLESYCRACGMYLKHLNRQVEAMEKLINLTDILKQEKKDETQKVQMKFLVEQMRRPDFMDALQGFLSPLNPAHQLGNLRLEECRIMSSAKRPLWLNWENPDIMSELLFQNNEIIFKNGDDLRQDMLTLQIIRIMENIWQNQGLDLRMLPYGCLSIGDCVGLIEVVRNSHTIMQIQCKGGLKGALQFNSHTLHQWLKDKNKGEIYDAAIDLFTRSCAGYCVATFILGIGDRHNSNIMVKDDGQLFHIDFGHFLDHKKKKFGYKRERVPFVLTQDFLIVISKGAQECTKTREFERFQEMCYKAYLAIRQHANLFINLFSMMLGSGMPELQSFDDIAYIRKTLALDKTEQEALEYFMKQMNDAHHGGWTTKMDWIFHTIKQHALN
T1 sequence (P27986 whole entry partner): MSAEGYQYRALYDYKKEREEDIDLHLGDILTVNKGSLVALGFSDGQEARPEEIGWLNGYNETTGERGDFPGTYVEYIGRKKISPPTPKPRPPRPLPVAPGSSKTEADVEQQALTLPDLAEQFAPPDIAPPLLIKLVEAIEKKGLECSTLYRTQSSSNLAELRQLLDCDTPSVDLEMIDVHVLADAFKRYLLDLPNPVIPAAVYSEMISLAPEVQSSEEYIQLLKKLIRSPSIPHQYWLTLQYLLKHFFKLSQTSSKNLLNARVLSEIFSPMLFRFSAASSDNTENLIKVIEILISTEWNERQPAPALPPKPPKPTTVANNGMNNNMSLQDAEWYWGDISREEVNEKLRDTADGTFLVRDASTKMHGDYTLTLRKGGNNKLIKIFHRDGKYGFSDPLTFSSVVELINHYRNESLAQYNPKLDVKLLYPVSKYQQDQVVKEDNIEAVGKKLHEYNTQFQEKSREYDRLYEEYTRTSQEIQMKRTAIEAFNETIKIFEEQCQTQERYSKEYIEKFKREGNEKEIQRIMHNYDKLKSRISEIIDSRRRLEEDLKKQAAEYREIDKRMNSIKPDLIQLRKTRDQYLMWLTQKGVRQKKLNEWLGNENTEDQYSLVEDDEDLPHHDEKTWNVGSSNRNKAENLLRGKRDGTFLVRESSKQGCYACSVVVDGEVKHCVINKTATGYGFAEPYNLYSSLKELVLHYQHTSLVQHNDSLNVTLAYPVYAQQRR

Row | SMILES | IC50 (PI3K p110α/p85) [nM] | IC50 (mTOR) [nM]
1 | OCc1cccc(-c2nc(N3CCOCC3)nc3c2ncn3Cc2ccccc2)c1 [Compound 1] | < 1000 | 1000 to 5000
2 | Oc1cc(F)cc(-c2nc(N3CCOCC3)nc3c2ncn3Cc2ccccc2)c1 [Compound 3] | < 1000 | < 1000
3 | CC(=O)Nc1cccc(-c2nc(N3CCOCC3)nc3c2ncn3Cc2ccccc2)c1 [Compound 4] | > 5000 | > 5000
4 | Oc1ccc(-c2nc(N3CCOCC3)nc3c2ncn3Cc2ccccc2)cc1 [Compound 5] | > 5000 | 1000 to 5000
5 | c1ccc(Cn2cnc3c(-c4ccc5cc[nH]c5c4)nc(N4CCOCC4)nc32)cc1 [Compound 6] | > 5000 | > 5000
6 | Oc1cccc(-c2nc(N3CCOCC3)nc3c2ncn3Cc2c(F)cccc2F)c1 [Compound 7] | < 1000 | < 1000
7 | N#Cc1cccc(Cn2cnc3c(-c4cccc(O)c4)nc(N4CCOCC4)nc32)c1 [Compound 9] | < 1000 | < 1000
8 | COCCn1cnc2c(-c3ccc4cc[nH]c4c3)nc(N3CCOCC3)nc21 [Compound 10, 6-(1H-Indol-6-yl)-9-(2-methoxy-ethyl)-2-morpholin-4-yl-9H-purine] | > 5000 | 1000 to 5000
9 | COCCn1cnc2c(-c3cccc(O)c3)nc(N3CCOCC3)nc21 [Compound 11, 3-[9-(2-Methoxy-ethyl)-2-morpholin-4-yl-9H-purin-6-yl]-phenol] | < 1000 | < 1000
10 | Oc1cccc(-c2nc(N3CCOCC3)nc3c2ncn3Cc2cccc(OC(F)(F)F)c2)c1 [Compound 12] | > 5000 | 1000 to 5000
11 | COC(=O)c1ccc(Cn2cnc3c(-c4cccc(O)c4)nc(N4CCOCC4)nc32)cc1 [Compound 13] | < 1000 | 1000 to 5000
12 | COc1cc(Cn2cnc3c(-c4cccc(O)c4)nc(N4CCOCC4)nc32)cc(OC)c1 [Compound 14] | < 1000 | < 1000
13 | Oc1cccc(-c2nc(N3CCOCC3)nc3c2ncn3Cc2cccc(F)c2)c1 [Compound 15] | < 1000 | < 1000
14 | COc1cccc(Cn2cnc3c(-c4cccc(O)c4)nc(N4CCOCC4)nc32)c1 [Compound 17] | < 1000 | < 1000
15 | COc1cccc(Cn2cnc3c(-c4ccc5cc[nH]c5c4)nc(N4CCOCC4)nc32)c1 [Compound 18] | > 5000 | 1000 to 5000
16 | O=[N+]([O-])c1ccc(Cn2cnc3c(-c4cccc(O)c4)nc(N4CCOCC4)nc32)cc1 [Compound 19, 3-[2-Morpholin-4-yl-9-(4-nitro-benzyl)-9H-purin-6-yl]-phenol] | < 1000 | < 1000
17 | Nc1ccc(Cn2cnc3c(-c4cccc(O)c4)nc(N4CCOCC4)nc32)cc1 [Compound 20, 3-[9-(4-Amino-benzyl)-2-morpholin-4-yl-9H-purin-6-yl]-phenol] | < 1000 | < 1000
18 | c1cc2ccc(-c3nc(N4CCOCC4)nc4c3ncn4CC3CC3)cc2[nH]1 [Compound 21] | > 5000 | < 1000
19 | C=CCCn1cnc2c(-c3ccc4cc[nH]c4c3)nc(N3CCOCC3)nc21 [Compound 23] | > 5000 | 1000 to 5000
20 | CCOC(=O)CCn1cnc2c(-c3cccc(O)c3)nc(N3CCOCC3)nc21 [Compound 24] | – | < 1000
21 | CCOC(=O)CCn1cnc2c(-c3ccc4cc[nH]c4c3)nc(N3CCOCC3)nc21 [Compound 25] | – | 1000 to 5000
22 | O=C(CCN1CCCCC1)Nc1ccc(Cn2cnc3c(-c4cccc(O)c4)nc(N4CCOCC4)nc32)cc1 [Compound 26, N-{4-[6-(3-Hydroxy-phenyl)-2-morpholin-4-yl-purin-9-ylmethyl]-phenyl}-3-piperidin-1-yl-propionamide] | < 1000 | 1000 to 5000
23 | c1ccc(Cn2cnc3c(-c4ccc5nc[nH]c5c4)nc(N4CCOCC4)nc32)cc1 [Compound 28] | 1000 to 5000 | 1000 to 5000
24 | Nc1cccc(-c2nc(N3CCOCC3)nc3c2ncn3Cc2ccccc2)c1 [Compound 29] | > 5000 | 1000 to 5000
25 | Oc1cccc(-c2nc(N3CCOCC3)nc3c2ncn3Cc2ccc(C(F)(F)F)cc2)c1 [Compound 30] | 1000 to 5000 | 1000 to 5000
26 | O=[N+]([O-])c1cccc(Cn2cnc3c(-c4cccc(O)c4)nc(N4CCOCC4)nc32)c1 [Compound 31] | < 1000 | < 1000

Row | SMILES | IC50 (PI3K p110α/p85) [nM] | IC50 (mTOR) [nM]
27 | CC(=O)Nc1ccc(Cn2cnc3c(-c4cccc(O)c4)nc(N4CCOCC4)nc32)cc1 [Compound 32] | < 1000 | 1000 to 5000
28 | CC(=O)Nc1ccc(Cn2cnc3c(-c4cccc(OC(C)=O)c4)nc(N4CCOCC4)nc32)cc1 [Compound 33] | < 1000 | > 5000
29 | CCNc1ccc(Cn2cnc3c(-c4cccc(O)c4)nc(N4CCOCC4)nc32)cc1 [Compound 34] | < 1000 | 1000 to 5000
30 | Oc1cccc(-c2nc(N3CCOCC3)nc3c2ncn3Cc2cc(F)cc(F)c2)c1 [Compound 37] | < 1000 | < 1000
31 | Nc1ccc(-c2nc(N3CCOCC3)nc3c2ncn3Cc2ccccc2)cc1N [Compound 38] | > 5000 | 1000 to 5000
32 | c1ccc(Cn2cnc3c(-c4ccc5nn[nH]c5c4)nc(N4CCOCC4)nc32)cc1 [Compound 39] | 1000 to 5000 | 1000 to 5000
33 | O=c1[nH]c2ccc(-c3nc(N4CCOCC4)nc4c3ncn4Cc3ccccc3)cc2[nH]1 [Compound 40] | > 5000 | > 5000
34 | Nc1cccc(Cn2cnc3c(-c4cccc(O)c4)nc(N4CCOCC4)nc32)c1 [Compound 41] | < 1000 | < 1000
35 | CS(=O)(=O)Nc1ccc(Cn2cnc3c(-c4cccc(O)c4)nc(N4CCOCC4)nc32)cc1 [Compound 42] | < 1000 | 1000 to 5000
36 | CS(=O)(=O)Nc1cccc(-c2nc(N3CCOCC3)nc3c2ncn3Cc2ccccc2)c1 [Compound 43] | > 5000 | > 5000
37 | Oc1cccc(-c2nc(N3CCOCC3)nc3c2ncn3CCOc2ccccc2)c1 [Compound 44] | < 1000 | < 1000
38 | Oc1cccc(-c2nc(N3CCOCC3)nc3c2ncn3C/C=C/c2ccccc2)c1 [Compound 45] | – | < 1000
39 | Oc1cccc(-c2nc(N3CCOCC3)nc3c2ncn3Cc2ccc3ccccc3c2)c1 [Compound 46] | – | < 1000
40 | Fc1cccc(Cn2cnc3c(-c4ccc5[nH]ccc5c4)nc(N4CCOCC4)nc32)c1 [Compound 47] | > 5000 | 1000 to 5000
41 | Oc1cccc(-c2nc(N3CCOCC3)nc3[nH]cnc23)c1 [Compound 48] | – | 1000 to 5000
42 | CC(=O)Nc1cccc(Cn2cnc3c(-c4cccc(O)c4)nc(N4CCOCC4)nc32)c1 [Compound 49] | < 1000 | 1000 to 5000
43 | C#CCn1cnc2c(-c3cccc(O)c3)nc(N3CCOCC3)nc21 [Compound 53] | < 1000 | < 1000
44 | CS(=O)(=O)Nc1cccc(Cn2cnc3c(-c4cccc(O)c4)nc(N4CCOCC4)nc32)c1 [Compound 55] | 1000 to 5000 | > 5000
45 | CC(=O)Nc1cccc(-c2nc(N3CCOCC3)nc3c2ncn3-c2ccccc2)c1 [Compound 56] | > 5000 | > 5000
46 | Oc1cccc(-c2nc(N3CCOCC3)nc3c2ncn3C2CCCCO2)c1 (stereo not shown) [Compound 57] | < 1000 | < 1000
47 | c1ccc(Cn2cnc3c(-c4ccc5[nH]ccc5c4)nc(N4CCOCC4)nc32)cc1 [Compound 58] | > 5000 | 1000 to 5000
48 | CC(C)(C)OC(=O)N1CCC(n2cnc3c(-c4cccc(O)c4)nc(N4CCOCC4)nc32)CC1 [Compound 71] | – | < 1000
49 | CCOC(=O)Cn1cnc2c(-c3cccc(O)c3)nc(N3CCOCC3)nc21 [Compound 74, ethyl-2-(6-(3-hydroxyphenyl)-2-morpholino-9H-purin-9-yl)acetate] | – | < 1000
50 | Oc1cccc(-c2nc(N3CCOCC3)nc3c2ncn3C2CCNCC2)c1 [Compound 85] | – | < 1000
51 | CC(C)(C)OC(=O)N1CCC(n2cnc3c(-c4cccc(O)c4)nc(N4CCOCC4)nc32)CC1 [Compound 86] | < 1000 | –
52 | CC(C)C(C)n1cnc2c(-c3cccc(O)c3)nc(N3CCOCC3)nc21 (stereo not shown) [Compound 100] | – | < 1000
